#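 Protocol summary: plate cells (96-well), add compound at 5 concentrations, incubate 48 h, interpolate endpoints linearly. GI50 marks 50% less growth.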 The source made the active and inactive calls. Cut-off read from the data, not from the text of the source: active = GI50 up to about 1.1 µM and inactive = higher.
# Columns and labels:
# Test in all cases: NCI tumour cell line growth inhibition, 48 h
# Malme-3M = system: Malme-3M
# UACC-257 = system: UACC-257
# OVCAR-8 = system: OVCAR-8
# NCI-H522 = system: NCI-H522
# NCI-H226 = system: NCI-H226
# SNB-75 = system: SNB-75
# KM-20L2 = system: KM-20L2
# HT-29 = system: HT-29
# HOP-62 = system: HOP-62
# SF-268 = system: SF-268
# K562 = system: K562
# SNB-19 = system: SNB-19
# SK-MEL-28 = system: SK-MEL-28
# UACC-62 = system: UACC-62
# NCI-H460 = system: NCI-H460
# KM12 = system: KM12
# CAKI-1 = system: CAKI-1
# XF498 = system: XF498
# HCC 2998 = system: HCC 2998
# U-251 = system: U-251
# HCT-15 = system: HCT-15
# SK-OV-3 = system: SK-OV-3
# COLO 205 = system: COLO 205
# OVCAR-3 = system: OVCAR-3
# UO-31 = system: UO-31
# 786-0 = system: 786-0
# RPMI-8226 = system: RPMI-8226
# NCI-H23 = system: NCI-H23
# SN12C = system: SN12C
# M14 = system: M14
# M19-MEL = system: M19-MEL
# DLD-1 = system: DLD-1
# LOX IMVI = system: LOX IMVI
# SF-295 = system: SF-295
# CCRF-CEM = system: CCRF-CEM
# SK-MEL-2 = system: SK-MEL-2
# MOLT-4 = system: MOLT-4
# DMS-273 = system: DMS-273
# SW-620 = system: SW-620
# A498 = system: A498
# SF-539 = system: SF-539
# RXF 393 = system: RXF 393
# SNB-78 = system: SNB-78
# IGROV-1 = system: IGROV-1
# TK-10 = system: TK-10
# EKVX = system: EKVX
# A549 = system: A549
# SK-MEL-5 = system: SK-MEL-5
# Hs-578T = system: Hs-578T
# ACHN = system: ACHN
# MDA-MB-435 = system: MDA-MB-435
# MDA-MB-231 = system: MDA-MB-231
# DU-145 = system: DU-145
# MDA-N = system: MDA-N
# NCI/ADR-RES = system: NCI/ADR-RES
# OVCAR-5 = system: OVCAR-5
# SR = system: SR
# PC-3 = system: PC-3
# BT-549 = system: BT-549
# HCT-116 = system: HCT-116
# T47D = system: T47D
# HOP-92 = system: HOP-92
# OVCAR-4 = system: OVCAR-4
# HL-60 = system: HL-60
# MCF7 = system: MCF7
# DMS-114 = system: DMS-114
# LXFL 529 = system: LXFL 529
smiles,measurement,setting,value
O=C(Nc1ccccc1Cl)c1ccc([N+](=O)[O-])cc1,GI50,Malme-3M,> 100 µM (inactive)
same,GI50,UACC-257,> 100 µM (inactive)
same,GI50,OVCAR-8,> 100 µM (inactive)
same,GI50,NCI-H522,> 100 µM (inactive)
same,GI50,NCI-H226,> 100 µM (inactive)
same,GI50,SNB-75,22.4 µM (inactive)
same,GI50,KM-20L2,> 100 µM (inactive)
same,GI50,HT-29,> 100 µM (inactive)
same,GI50,HOP-62,47.4 µM (inactive)
same,GI50,SF-268,> 100 µM (inactive)
same,GI50,K562,> 100 µM (inactive)
same,GI50,SNB-19,41.2 µM (inactive)
same,GI50,SK-MEL-28,> 100 µM (inactive)
same,GI50,UACC-62,> 100 µM (inactive)
same,GI50,NCI-H460,> 100 µM (inactive)
same,GI50,KM12,> 100 µM (inactive)
same,GI50,CAKI-1,> 100 µM (inactive)
same,GI50,XF498,> 100 µM (inactive)
same,GI50,HCC 2998,> 100 µM (inactive)
same,GI50,U-251,> 100 µM (inactive)
same,GI50,HCT-15,> 100 µM
same,GI50,SK-OV-3,> 100 µM (inactive)
same,GI50,COLO 205,> 100 µM (inactive)
same,GI50,OVCAR-3,> 100 µM (inactive)
same,GI50,UO-31,> 100 µM (inactive)
same,GI50,786-0,45.7 µM (inactive)
same,GI50,RPMI-8226,> 100 µM (inactive)
same,GI50,NCI-H23,> 100 µM (inactive)
same,GI50,SN12C,> 100 µM (inactive)
same,GI50,M14,> 100 µM (inactive)
same,GI50,M19-MEL,> 100 µM (inactive)
same,GI50,DLD-1,> 100 µM (inactive)
same,GI50,LOX IMVI,> 100 µM (inactive)
same,GI50,SF-295,46.7 µM (inactive)
same,GI50,CCRF-CEM,> 100 µM (inactive)
same,GI50,SK-MEL-2,> 100 µM (inactive)
same,GI50,MOLT-4,> 100 µM (inactive)
same,GI50,DMS-273,> 100 µM (inactive)
same,GI50,SW-620,> 100 µM (inactive)
same,GI50,A498,> 100 µM (inactive)
same,GI50,SF-539,64.3 µM (inactive)
same,GI50,RXF 393,33.3 µM (inactive)
same,GI50,SNB-78,39.7 µM (inactive)
same,GI50,IGROV-1,> 100 µM (inactive)
same,GI50,TK-10,> 100 µM (inactive)
same,GI50,EKVX,76.4 µM (inactive)
same,GI50,A549,> 100 µM (inactive)
same,GI50,SK-MEL-5,> 100 µM (inactive)
CC(C)NC(=O)OCc1c(COC(=O)NC(C)C)n(C)c2c1ccc1sccc12,GI50,Malme-3M,3.15 µM (inactive)
same,GI50,UACC-257,15.8 µM (inactive)
same,GI50,OVCAR-8,> 100 µM (inactive)
same,GI50,NCI-H522,3.65 µM (inactive)
same,GI50,NCI-H226,2.67 µM (inactive)
same,GI50,SNB-75,14.4 µM (inactive)
same,GI50,Hs-578T,13.6 µM (inactive)
same,GI50,HT-29,24.2 µM (inactive)
same,GI50,HOP-62,20.9 µM (inactive)
same,GI50,ACHN,7 µM (inactive)
same,GI50,SF-268,6.18 µM (inactive)
same,GI50,K562,23.4 µM (inactive)
same,GI50,SNB-19,20.8 µM (inactive)
same,GI50,SK-MEL-28,18.1 µM (inactive)
same,GI50,UACC-62,10.2 µM (inactive)
same,GI50,NCI-H460,5.33 µM (inactive)
same,GI50,KM12,15 µM (inactive)
same,GI50,CAKI-1,4.8 µM (inactive)
same,GI50,MDA-MB-435,13.2 µM (inactive)
same,GI50,HCC 2998,15.2 µM (inactive)
same,GI50,U-251,20.7 µM (inactive)
same,GI50,MDA-MB-231,20.1 µM (inactive)
same,GI50,DU-145,6.78 µM (inactive)
same,GI50,HCT-15,16.9 µM
same,GI50,MDA-N,17.4 µM (inactive)
same,GI50,SK-OV-3,24.9 µM (inactive)
same,GI50,COLO 205,13.6 µM (inactive)
same,GI50,OVCAR-3,15.7 µM (inactive)
same,GI50,NCI/ADR-RES,> 25.4 µM (inactive)
same,GI50,OVCAR-5,30.6 µM (inactive)
same,GI50,UO-31,9.14 µM (inactive)
same,GI50,786-0,6.35 µM (inactive)
same,GI50,RPMI-8226,9.73 µM (inactive)
same,GI50,NCI-H23,7.4 µM (inactive)
same,GI50,SN12C,15.9 µM (inactive)
same,GI50,M14,14.1 µM (inactive)
same,GI50,LOX IMVI,7.94 µM (inactive)
same,GI50,SR,4.19 µM (inactive)
same,GI50,SF-295,10 µM (inactive)
same,GI50,CCRF-CEM,10.2 µM (inactive)
same,GI50,SK-MEL-2,16.4 µM (inactive)
same,GI50,PC-3,11.5 µM (inactive)
same,GI50,MOLT-4,10.3 µM (inactive)
same,GI50,SW-620,16.2 µM (inactive)
same,GI50,BT-549,2.96 µM (inactive)
same,GI50,A498,16.3 µM (inactive)
same,GI50,SF-539,12.4 µM (inactive)
same,GI50,RXF 393,12.2 µM (inactive)
same,GI50,HCT-116,11.1 µM (inactive)
same,GI50,IGROV-1,3.02 µM (inactive)
same,GI50,T47D,17.3 µM (inactive)
same,GI50,HOP-92,4.9 µM (inactive)
same,GI50,TK-10,18.6 µM (inactive)
same,GI50,EKVX,11.2 µM (inactive)
same,GI50,OVCAR-4,12.8 µM (inactive)
same,GI50,A549,> 36.6 µM (inactive)
same,GI50,HL-60,> 100 µM (inactive)
same,GI50,MCF7,13.5 µM (inactive)
same,GI50,SK-MEL-5,9.29 µM (inactive)
O=C(C/C(=N\NC(=O)C[n+]1ccccc1)C(=O)Nc1nc2ccc([N+](=O)[O-])cc2s1)CC(c1ccccc1)c1c(O)c2ccccc2oc1=O (centres undefined),GI50,Malme-3M,> 100 µM (inactive)
same,GI50,UACC-257,> 100 µM (inactive)
same,GI50,OVCAR-8,> 100 µM (inactive)
same,GI50,NCI-H522,99.5 µM (inactive)
same,GI50,KM-20L2,> 100 µM (inactive)
same,GI50,HT-29,> 100 µM (inactive)
same,GI50,HOP-62,> 100 µM (inactive)
same,GI50,ACHN,> 100 µM (inactive)
same,GI50,SF-268,> 100 µM (inactive)
same,GI50,K562,> 100 µM (inactive)
same,GI50,SNB-19,> 100 µM (inactive)
same,GI50,SK-MEL-28,> 100 µM (inactive)
same,GI50,UACC-62,> 100 µM (inactive)
same,GI50,NCI-H460,> 100 µM (inactive)
same,GI50,KM12,> 100 µM (inactive)
same,GI50,CAKI-1,> 100 µM (inactive)
same,GI50,HCC 2998,> 100 µM (inactive)
same,GI50,SK-OV-3,> 100 µM (inactive)
same,GI50,COLO 205,> 100 µM (inactive)
same,GI50,OVCAR-3,> 100 µM (inactive)
same,GI50,OVCAR-5,> 100 µM (inactive)
same,GI50,UO-31,67.5 µM (inactive)
same,GI50,786-0,> 100 µM (inactive)
same,GI50,RPMI-8226,> 100 µM (inactive)
same,GI50,NCI-H23,> 100 µM (inactive)
same,GI50,SN12C,> 100 µM (inactive)
same,GI50,M14,> 100 µM (inactive)
same,GI50,M19-MEL,> 100 µM (inactive)
same,GI50,DLD-1,> 100 µM (inactive)
same,GI50,SR,> 100 µM (inactive)
same,GI50,SF-295,> 100 µM (inactive)
same,GI50,CCRF-CEM,> 100 µM (inactive)
same,GI50,SK-MEL-2,> 100 µM (inactive)
same,GI50,MOLT-4,> 100 µM (inactive)
same,GI50,SW-620,> 100 µM (inactive)
same,GI50,A498,46.3 µM (inactive)
same,GI50,SF-539,> 100 µM (inactive)
same,GI50,RXF 393,> 100 µM (inactive)
same,GI50,HCT-116,> 100 µM (inactive)
same,GI50,IGROV-1,> 100 µM (inactive)
same,GI50,DMS-114,> 100 µM (inactive)
same,GI50,HOP-92,> 100 µM (inactive)
same,GI50,TK-10,> 100 µM (inactive)
same,GI50,EKVX,> 100 µM (inactive)
same,GI50,OVCAR-4,> 100 µM (inactive)
same,GI50,A549,> 100 µM (inactive)
same,GI50,HL-60,> 100 µM (inactive)
same,GI50,SK-MEL-5,> 100 µM (inactive)
COc1ccc2c(c1)CC[C@@H]1C2CC[C@](C)(C#N)C1CC#N (some centres undefined),GI50,Malme-3M,> 100 µM (inactive)
same,GI50,UACC-257,> 100 µM (inactive)
same,GI50,NCI-H522,> 100 µM (inactive)
same,GI50,SNB-75,> 100 µM (inactive)
same,GI50,KM-20L2,> 100 µM (inactive)
same,GI50,HT-29,> 100 µM (inactive)
same,GI50,HOP-62,> 100 µM (inactive)
same,GI50,ACHN,> 100 µM (inactive)
same,GI50,SF-268,> 100 µM (inactive)
same,GI50,K562,> 100 µM (inactive)
same,GI50,SNB-19,> 100 µM (inactive)
same,GI50,SK-MEL-28,> 100 µM (inactive)
same,GI50,UACC-62,> 100 µM (inactive)
same,GI50,NCI-H460,> 100 µM (inactive)
same,GI50,KM12,> 100 µM (inactive)
same,GI50,U-251,> 100 µM (inactive)
same,GI50,SK-OV-3,> 100 µM (inactive)
same,GI50,COLO 205,> 100 µM (inactive)
same,GI50,OVCAR-3,> 100 µM (inactive)
same,GI50,OVCAR-5,> 100 µM (inactive)
same,GI50,UO-31,> 100 µM (inactive)
same,GI50,786-0,> 100 µM (inactive)
same,GI50,RPMI-8226,> 100 µM (inactive)
same,GI50,NCI-H23,> 100 µM (inactive)
same,GI50,M14,> 100 µM (inactive)
same,GI50,M19-MEL,> 100 µM (inactive)
same,GI50,SR,> 100 µM (inactive)
same,GI50,SF-295,> 100 µM (inactive)
same,GI50,CCRF-CEM,> 100 µM (inactive)
same,GI50,MOLT-4,> 100 µM (inactive)
same,GI50,A498,> 100 µM (inactive)
same,GI50,RXF 393,> 100 µM (inactive)
same,GI50,LXFL 529,> 100 µM (inactive)
same,GI50,SNB-78,> 100 µM (inactive)
same,GI50,HCT-116,> 100 µM (inactive)
same,GI50,IGROV-1,> 100 µM (inactive)
same,GI50,DMS-114,> 100 µM (inactive)
same,GI50,HOP-92,> 100 µM (inactive)
same,GI50,OVCAR-4,> 100 µM (inactive)

# — ChEMBL document CHEMBL1201862, “PubChem BioAssay data set” (2004)
